Test results as given in the supplement of paper PMC10307832.

Tests used:
Test in all cases: relative viability (nuclei count vs DMSO), 5 days (fraction); higher = more cells survive
[1] = compound: C(C(=O)C(=O)O)Br [Bromopyruvate] + CC(=O)Nc1cccc(-n2c(=O)n(C3CC3)c(=O)c3c(Nc4ccc(I)cc4F)n(C)c(=O)c(C)c32)c1 [Trametinib] (partner 0.02 µM)
Summary of the method: (§1)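 Relative viability was taken as the ratio of nuclei in treated wells to nuclei in vehicle wells. Lung cancer cell lines in 1536-well plates received compounds by pin tool one day after seeding, either one drug alone or a fixed anchor-drug dose plus five library-drug doses (not always all listed) in √10 steps. Nuclei were counted on 4× images after 5 days of treatment, and values are medians of duplicate plates.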

[2] = compound: C(C(=O)C(=O)O)Br [Bromopyruvate] + Cc1nc(NC(=O)N2CCC[C@H]2C(N)=O)sc1-c1ccnc(C(C)(C)C(F)(F)F)c1 [Alpelisib] (partner 2 µM)
Summary of the method: as §1

[3] = compound: C(C(=O)C(=O)O)Br [Bromopyruvate] + N=C(N)NC(=N)NCCc1ccccc1 [Phenformin] (partner 250 µM)
Summary of the method: as §1

[4] = compound: CC(O)(CS(=O)(=O)c1ccc(F)cc1)C(=O)Nc1ccc(C#N)c(C(F)(F)F)c1 [Bicalutamide] + O=C(CCCCCCC(=O)Nc1ccccc1)NO [Vorinostat] (partner 1 µM)
Summary of the method: as §1

Cell Line	relative viability ([1]; first compound 1 µM)	relative viability ([1]; first compound 3.162 µM)	relative viability ([1]; first compound 10 µM)	relative viability ([1]; first compound 31.62 µM)	relative viability ([1]; first compound 100 µM)	relative viability ([2]; first compound 1 µM)	relative viability ([2]; first compound 3.162 µM)	relative viability ([2]; first compound 10 µM)	relative viability ([2]; first compound 31.62 µM)	relative viability ([2]; first compound 100 µM)	relative viability ([3]; first compound 1 µM)	relative viability ([3]; first compound 3.162 µM)	relative viability ([3]; first compound 10 µM)	relative viability ([3]; first compound 31.62 µM)	relative viability ([3]; first compound 100 µM)	relative viability ([4]; first compound 0.08 µM)	relative viability ([4]; first compound 0.253 µM)	relative viability ([4]; first compound 0.8 µM)	relative viability ([4]; first compound 2.53 µM)
HCC-827	0.51	0.542	0.579	0.551	0.568	1.03	0.988	0.972	1.02	0.967	0.438	0.43	0.395	0.389	0.413	0.921	0.639	1.15	0.815
HOP-62	0.405	0.343	0.372	0.408	0.485	0.696	1.06	–	0.426	0.698	0.704	0.643	0.645	0.737	0.696	0.783	0.606	0.689	0.52
IA-LM	–	–	–	–	–	0.756	0.776	0.887	0.836	0.821	–	–	–	–	–	0.985	0.803	1.16	0.892
LC-2-ad	0.892	0.904	0.872	0.958	0.945	0.925	0.919	0.839	0.938	0.893	0.564	0.621	0.576	0.599	0.525	0.767	0.679	0.67	0.556
LCLC-97TM1	0.193	0.188	0.2	0.165	0.277	–	–	0.272	0.302	0.183	0.411	0.397	0.359	0.439	0.415	0.728	0.644	0.972	0.54
LCLC-103H	0.681	0.692	0.696	0.693	0.767	0.981	0.938	1.01	0.95	0.985	0.343	0.338	0.371	0.362	0.365	0.791	0.679	0.914	0.744
LK-2	0.742	0.92	0.872	0.782	0.519	0.565	0.991	1.14	1.16	1.22	0.411	0.673	0.432	0.57	0.496	0.346	0.339	0.354	0.311
LOU-NH91	0.79	0.761	0.799	0.826	0.866	0.764	0.732	0.721	0.775	0.868	0.759	0.77	0.74	0.74	0.747	0.985	0.723	0.971	0.893
LU99A	0.521	0.531	0.621	0.564	0.661	0.516	0.491	0.512	0.561	0.483	0.751	0.753	0.89	0.921	0.794	0.461	0.436	0.626	0.43
LXF-289	0.671	0.653	0.627	0.693	0.67	1.07	1.03	1.04	1.03	1.08	0.525	0.537	0.516	0.504	0.531	0.818	0.734	0.797	0.698
NCI-H23	0.371	0.375	0.346	0.354	0.336	0.607	0.669	0.68	0.46	0.43	0.778	0.842	0.837	0.809	0.857	0.758	0.498	0.697	0.465
NCI-H322M	0.525	0.537	0.517	0.536	0.5	0.804	0.73	0.843	0.779	0.798	0.727	0.756	0.809	0.796	0.784	0.858	0.898	0.995	1.11
NCI-H522	0.697	0.671	0.778	0.92	0.757	–	–	–	–	–	0.599	0.654	0.641	0.679	0.574	1.01	0.862	0.99	0.77
NCI-H1299	–	–	–	–	–	1.01	1.04	1.09	1.04	1.06	–	–	–	–	–	–	–	–	–
NCI-H1563	–	–	–	–	–	0.984	1.02	0.825	0.978	0.809	0.621	0.748	0.643	0.673	0.657	–	–	–	–
NCI-H1623	–	–	–	–	–	–	–	–	–	–	0.545	0.654	0.635	0.588	0.625	–	–	–	–
NCI-H1648	0.349	0.413	0.472	0.545	0.482	–	–	–	–	–	–	–	–	–	–	–	–	0.698	0.425
NCI-H1650	0.548	0.482	0.643	0.572	0.515	–	–	–	–	–	0.414	0.429	0.475	0.449	0.291	0.685	0.586	0.581	0.611
NCI-H1703	–	–	–	–	–	0.364	0.347	0.294	0.345	0.33	–	–	–	–	–	–	–	–	–
NCI-H1792	0.392	0.448	0.382	0.364	0.435	0.715	0.788	0.906	0.708	0.703	0.227	0.345	–	0.386	0.252	–	–	–	–
NCI-H2342	0.757	0.912	0.779	0.696	0.736	–	–	–	–	–	0.574	0.645	0.613	0.479	0.488	0.759	0.767	0.853	0.801
SW 900	0.865	0.76	0.92	0.729	0.739	–	–	–	–	–	0.645	0.55	0.755	0.706	0.627	0.601	0.281	0.394	0.398
